Laboratory results published in article PMC11233931, “Remodeling tumor‐associated macrophage for anti‐cancer effects by rational design of irreversible inhibition of mitogen‐activated protein kinase‐activated protein kinase 2” (MedComm, 2024).

Tests used:
[1] = test system: VEGF mRNA in bone marrow-derived macrophages (BMDMs); assay: RT-PCR of VEGF in IL-4/IL-13 stimulated BMDMs; assay type: cell-based, mouse; settings: IL-4/IL-13, 12 h
Source text: Following this line of investigation, we employed siRNA for the transient knockdown of MK2 in THP‐1 monocyte‐ differentiated macrophages. […] M2 macrophages play a pivotal role in promoting tumor angiogenesis through the secretion of critical factors like VEGF, which facilitate tumor neovascularization.[17] […] These findings further validate the significance of MK2 in the M2 polarization of macrophages and illustrate how compound 11, by targeting MK2, suppresses the pro‐tumorigenic phenotype of macrophages.
Total RNA was extracted from cultured cells using the EZ‐press RNA Purification Kit (EZBioscience). Complementary DNA was synthesized using the ABScript III RT Master Mix for qPCR with gDNA remover (ABclonal Technology) and was quantified with primers listed in Table S5. The relative mRNA expression levels were quantified through qPCR using the SYBR green gene expression assay (ABclonal Technology).
Figure S3 Inhibition of pro-tumorigenic M2-like polarization in macrophages by compound 11. (A) Illustrates the treatment effects on various macrophage cells using Western blot analysis post IL-4/IL-13 exposure (30 minutes or the specified time period). (B) Examines CD206 expression in RAW264.7 cells via flow cytometry post 48hours treatment of compound 11 and IL-4/IL-13. […] IL-4/IL-13 (20 ng/mL) served as the stimulation control, while untreated cells were the baseline control. […]

FGFR4 = molecular target: T1, FGFR4 (Homo sapiens, UniProt P22455); assay: Eurofins kinase selectivity profile, FGFR4; assay type: biochemical
T1 construct: purchased Eurofins (Celle Lévescault)
T1 sequence (P22455 22-802): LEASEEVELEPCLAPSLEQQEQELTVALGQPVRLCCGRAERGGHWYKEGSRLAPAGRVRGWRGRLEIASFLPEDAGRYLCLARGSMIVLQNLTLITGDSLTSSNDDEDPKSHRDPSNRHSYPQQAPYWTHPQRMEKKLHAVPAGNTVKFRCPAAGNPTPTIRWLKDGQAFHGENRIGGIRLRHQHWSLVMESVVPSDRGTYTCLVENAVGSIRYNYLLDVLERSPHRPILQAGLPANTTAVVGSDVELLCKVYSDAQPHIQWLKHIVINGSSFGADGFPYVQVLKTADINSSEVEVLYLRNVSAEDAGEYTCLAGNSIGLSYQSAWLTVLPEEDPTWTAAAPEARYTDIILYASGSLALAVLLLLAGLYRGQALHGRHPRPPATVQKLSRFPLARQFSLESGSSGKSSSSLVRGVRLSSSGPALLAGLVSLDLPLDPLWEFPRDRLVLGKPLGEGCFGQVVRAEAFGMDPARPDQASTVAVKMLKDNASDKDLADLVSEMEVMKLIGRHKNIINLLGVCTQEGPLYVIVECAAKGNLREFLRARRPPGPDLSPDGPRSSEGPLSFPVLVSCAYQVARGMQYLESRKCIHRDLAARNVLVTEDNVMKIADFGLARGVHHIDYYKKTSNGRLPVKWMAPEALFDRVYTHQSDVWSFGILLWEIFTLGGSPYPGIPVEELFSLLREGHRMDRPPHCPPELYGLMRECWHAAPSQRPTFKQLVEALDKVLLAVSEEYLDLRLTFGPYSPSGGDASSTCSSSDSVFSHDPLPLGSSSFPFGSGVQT
Experimental: (§1) Subsequently, to ascertain whether the high potency of compound 11 was specific for MK2, an additional 380 human recombinant protein kinases were screened.
(§2) To assess the impact of various compounds on MK2 kinase activity, we utilized the ADP‐Glo Assay Kit (Promega) following the manufacturer's instructions. Luminescence measurements were taken using a SpectraMax Paradigm reader. The inhibition percentage was calculated using the following formula: ((specific signalDMSO control − specific signal inhibitor)/(specific signalDMSO control)) × 100%. The IC50 values were determined employing dose–response curve fitting via Prism (Graph Pad). Additionally, Eurofins company (Celle Lévescault) conducted the analysis on compound 11’s inhibitory activity against 380 other human recombinant kinases at various concentrations.

[2] = Cell viability assay (CCK-8), HEK293; assay type: cell-based; settings: HEK293 cells (embryo kidney), HEK293, human embryo kidney, read-out: IC50 (μM) mean ± SD, cytotoxicity
Experimental: In cellular experiments, cells are seeded into either 6-well or 96-well plates and incubated overnight, proceeding with treatments as described in the figure legends or methods section. The cell inoculation numbers are outlined as follows: For assays measuring cell viability, between 3,000 to 5,000 cells are seeded per well in 96-well plates. For other cellular assays, the seeding density ranges from 5×10^5 to 1×10^6 cells per well in 6-well plates.
Cells was plated into 96-well plates and incubated overnight prior to introduction of varying concentrations of compounds or control solvent. Following a 72-hour exposure period, cell viability was determined using a Cell Counting Kit-8 assay (Life-iLab, China). Dose-response curves were fitted using a four-parameter method facilitated by SoftMax Pro, which was subsequently used for the computation of IC50 values.

p70S6Kb = molecular target: T2, p70S6Kb (Homo sapiens, UniProt Q9UBS0); assay: Eurofins kinase selectivity profile, p70S6Kb; assay type: biochemical
T2 construct: purchased Eurofins (Celle Lévescault)
T2 sequence (Q9UBS0 whole entry): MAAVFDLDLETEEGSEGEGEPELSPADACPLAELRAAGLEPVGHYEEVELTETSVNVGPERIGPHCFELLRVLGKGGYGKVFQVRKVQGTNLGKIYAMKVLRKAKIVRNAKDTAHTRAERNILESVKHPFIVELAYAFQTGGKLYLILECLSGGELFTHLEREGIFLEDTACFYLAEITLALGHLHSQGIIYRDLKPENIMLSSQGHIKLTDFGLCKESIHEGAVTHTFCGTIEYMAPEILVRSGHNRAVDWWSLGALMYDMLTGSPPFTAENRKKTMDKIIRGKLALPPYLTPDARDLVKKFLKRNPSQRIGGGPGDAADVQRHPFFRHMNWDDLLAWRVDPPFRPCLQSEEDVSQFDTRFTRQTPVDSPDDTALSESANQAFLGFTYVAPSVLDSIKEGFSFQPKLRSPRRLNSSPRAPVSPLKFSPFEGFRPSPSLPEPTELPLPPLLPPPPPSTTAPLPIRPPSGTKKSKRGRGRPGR
Experimental: as §1, §2

C=CC(=O)Nc1cc(-c2cc(-c3cc4c([nH]3)CCNC4=O)ccn2)ccc1OC(F)(F)F [compound 11]
effect on relative mRNA level of VEGF [1]: inhibited
IC50 (FGFR4): > 1000 nM
inhibition at 0.01 µM (FGFR4; FGFR4(h), 10 nM, read-out: Inhibition rate): 0%
inhibition at 0.1 µM (FGFR4; FGFR4(h), 100 nM, read-out: Inhibition rate): -5%
inhibition at 1 µM (FGFR4; FGFR4(h), 1000 nM, read-out: Inhibition rate): -1%
IC50 at 72 h [2]: 29.9 ± 7.2 µM
IC50 (p70S6Kb): > 1000 nM
inhibition at 0.01 µM (p70S6Kb; p70S6K(h), 10 nM, read-out: Inhibition rate): -9%
inhibition at 0.1 µM (p70S6Kb; p70S6K(h), 100 nM, read-out: Inhibition rate): -16%
inhibition at 1 µM (p70S6Kb; p70S6K(h), 1000 nM, read-out: Inhibition rate): -6%
